# From PubChem BioAssay AID1996
# Conditions: buffer; pH 7.4; 200.0 µM
row,SMILES,solubility kinetic [µg/mL]
1,CSc1ncccc1C(=O)OCc1c(F)cccc1Cl,1.1
2,CCNc1nc(NC(C)CC)nc(ON=C(C)C)n1 (centres undefined),> 40
3,Cc1sc2nc(C(C)C)nc(SCC(=O)NC3CC3)c2c1C,1.5
4,CC(C)C1Cc2ccccc2-c2[nH]c(=S)[nH]c(=O)c21 (centres undefined),27
5,O=C1NC(=O)C(=Cc2ccc(Sc3ccccc3)o2)C(=O)N1,40.5
6,CC(=O)c1cc2c(cc1NC(=O)CN(C)S(=O)(=O)c1cccs1)OCO2,6.4
7,CN1CCN(C(=O)c2ccc(C(F)(F)F)cc2)CC1.Cl,> 46.3
8,O=C(Nc1ccccc1F)N1CCCC1c1cccnc1 (centres undefined),40.9
9,Cl.O=C(CN1CCCC1)NCc1ccccc1,32.6
10,CCOc1ccccc1NC(=O)NCc1ccccn1,> 40.7
11,O=C(CNS(=O)(=O)c1ccc(F)cc1)N1CCCC1,> 42.9
12,CNc1ccc(C(=O)OCC(=O)NC(=O)NC2CCCC2)cc1[N+](=O)[O-],1.7
13,Cn1c(C(=O)O)ccc1S(=O)(=O)N(Cc1ccccc1)Cc1ccccc1,> 57.7
14,Cc1ccc(CN2CCC(N3CC(C)OC(C)C3)CC2)cc1.Cl (centres undefined),31.8
15,COc1ccc(NC(=O)CN2C(=O)NC(C)(c3ccc4c(c3)OCO4)C2=O)cc1S(N)(=O)=O (centres undefined),66.9
16,CCC(=O)N/C(N)=N/c1nc(C)c2cc(C)c(C)cc2n1,11.6
17,CCCc1nc2ccc(N)cc2c(=O)n1Cc1ccccc1Cl,13
18,COc1ccc(/C=C(\C#N)C(=O)Nc2cccc(C)n2)cc1,0.4
19,Cc1cc(=O)[nH]c(SCC(=O)Nc2ccc(F)cc2)c1C#N,> 47.6
20,COc1cc(/C=C2\SC(N)=NC2=O)ccc1O,34.5

row,SMILES,solubility kinetic [µg/mL]
1,Cc1cccc(OCc2ccc(C(=O)N3CCOCC3)o2)c1,> 45.2
2,O=C1c2ccccc2S(=O)(=O)N1Cc1ccccc1[N+](=O)[O-],0.7
3,Nc1cc(S(=O)(=O)Nc2ccc(Cl)cc2)ccc1N1CCOCC1,> 55.2
4,Cc1ccc(C2(C)NC(=O)N(CC(=O)N(c3ccccc3)C3CCS(=O)(=O)C3)C2=O)cc1 (centres undefined),> 68.3
5,CC(NC(=O)COC(=O)c1cc(S(=O)(=O)N2CCOCC2)ccc1F)c1ccccc1 (centres undefined),> 67.6
6,CC1CCCCC1NC(=O)Cn1c(=O)cnc2ccccc21 (centres undefined),5
7,CCOc1ccc(CN(C)C(=O)c2ccc(=O)[nH]c2)cc1,29.3
8,Cn1cnc(S(=O)(=O)N2CCN(c3ccccc3)CC2)c1,34.3
9,CC(C)c1ccc(OCC(=O)NC2=NCCS2)cc1,15.8
10,c1ccc(-n2cnc3ccccc32)cc1,24.6
11,CN(C)/C=C/C(=O)c1cccc(C(F)(F)F)c1,> 36.5
12,Cc1c(C)c(C)c(CO/N=C/c2cccs2)c(C)c1C,1.3
13,Cc1noc(C)c1S(=O)(=O)N1CCCC1C(=O)O (centres undefined),> 41.1
14,CSc1cccc(CN2CCC(CCC(=O)NC3CC3)CC2)c1,> 49.9
15,Cl.NCCc1nnc(SCc2ccccc2Cl)o1,> 45.9
16,COc1ccc(Cl)cc1C(=O)Nc1cccc2ncccc12,2.2
17,O=C(C1CCC1)N1CCN(c2ccccc2)CC1,35.6
18,C=CCn1cccc(C(=O)Nc2ccc(F)cc2)c1=O,> 40.8
19,O=C(NCc1ccccc1)c1ccc[nH+]c1.[Cl-],> 37.3
20,CC(=O)c1sc(NC(=O)COc2ccc(Cl)cc2Cl)nc1C,< 0.4

row,SMILES,solubility kinetic [µg/mL]
1,COCCCNc1ccc([N+](=O)[O-])cc1C(=O)Nc1cccc(C)n1,2.9
2,COC(=O)c1sccc1NC(=O)Nc1cccc(C(C)=O)c1,19.1
3,CSCC(=O)N1CCC(CCC(=O)NC2CC2)CC1,> 42.7
4,Cc1ccc(O)c(NC(=O)c2cc(C)no2)c1,> 34.8
5,CC(=O)c1ccc(OCC(=O)Nc2ccc3nc(C)sc3c2)cc1,1.4
6,CC12CCC(C(=O)N(CC3CO3)C1=O)C2(C)C (centres undefined),> 35.6
7,O=C(COc1ccc(Cl)cc1Br)NC1CC1,> 45.7
8,Cc1nc(-c2noc(-c3ccc(Cl)cc3)n2)c(C(F)(F)F)o1,< 0.2
9,CC(=O)Nc1ccc(NC(=O)C2c3ccccc3Oc3ccccc32)cc1,1.1
10,O=C(Nc1ccc2ncccc2c1)c1ccccc1,30.7
11,Cc1c(C(=O)Nc2c(C)n(C)n(-c3ccccc3)c2=O)oc2ccc(Cl)cc12,> 59.4
12,O=C(Cc1ccc(Cl)cc1)NCCCNC(=O)c1cccnc1,46.2
13,CN[C@H](CC(=O)O)C(=O)O,> 22.1
14,COC(=O)c1ccc(COc2ccc(/C=N/O)cc2OC)o1,> 45.8
15,O=[N+]([O-])c1ccc(N2CCCC2)nc1,26.8
16,N/C(COc1cc(Cl)cc(Cl)c1)=N\O,34.3
17,CC(=O)c1ccc(NC(=O)C(C)O/N=C(\N)c2ccccc2)cc1 (centres undefined),45.5
18,CCCN(CCC)CC(C)(C)NS(=O)(=O)c1ccc(Cl)cc1,39.6
19,O=C(COC(=O)c1cc(S(=O)(=O)N2CCOCC2)ccc1F)Nc1cc([N+](=O)[O-])ccc1F,7.4
